The results in this text go back to patent publication US6562843B1, “Substituted 3-pyridyl-4-arylpyrroles, and related therapeutic and prophylactic methods” (Ortho-McNeil Pharmaceutical, Inc., priority 1999, dated 2003).

The target of experiment [1] is T1, purified recombinant p38 (6×His-p38 expressed in E.coli) (Homo sapiens, UniProt Q16539).
T1 construct: 6xHis; made in house; host or cells: E. coli
The experiment is described as follows: p38 Inhibition In-Vitro Enzyme Assay. The experiment is classed as biochemical. The conditions noted are these: myelin basic protein substrate, 33P-ATP; for inhibition at 10 µM: read-out: % p38 inhib @ 10 μM. As for the experimental part:
A. p38 Inhibition In-Vitro Enzyme Assay
A solution (38 μL) of purified recombinant p38 (6×His-p38 expressed in E.coli), myelin basic protein substrate (determined empirically), and a buffer of pH 7.5 (Hepes:25 mM, MgCl2:10 mM, MnCl2:10 mM) were added to 92 wells of a 96-well round bottom polypropylene plate. The amount of enzyme was determined empirically based on the linear range of the assay and the acceptable signal to noise ratio. The remaining wells were used for control “CTRL”) and background (“BKG”). The CTRL was prepared with the enzyme, substrate buffer and 2% DMSO, and the BKG was prepared with substrate buffer and 2% DMSO.
A solution (12 μL) of the test compound in DMSO was added to the testing wells. […] The ATP/^33P-ATP solution (10 μL containing 50 μM unlabeled ATP and 1 μCi ^33P-ATP) was added to all wells and the completed plates were mixed and incubated at 30° C. for 30 min. Ice-cold 50% TCA/10 mM sodium phosphate (60 μL) was added to each well and the plates were kept on ice for 15 min. The contents of each well were transferred to the wells of a 96-well filterplate (Millipore, MultiScreen-DP) and the filterplate was placed on a vacuum manifold fitted with a waste collection tray. The wells were washed five times with 10% TCA/10 mM sodium phosphate (200 μL) under vacuum. MicroScint-20 scintillant was added, and the plates were sealed using Topseal-S sheets and counted in a Packard TopCount scintillation counter using a ^33P liquid program with color quench correction, where the output is in color quench-corrected cpm. The % inhibition of each test compound as shown in Table 2 was calculated by the following formula: % inhibition=[1−(sample−BKG)/(CTRL−BKG)]×100.
[…] In addition, the IC50 was calculated for some compounds using the Deltagraph 4-parameter curve-fitting program.

A further experiment concerns TNF-α production. The experiment is described as follows: In-Vitro Whole Cell Assay for TNF-α Inhibition (LPS-stimulated PBMC, ELISA). Type of experiment: cell-based. As to conditions: LPS overnight, TNF-α by ELISA. Here is the method: B. In-Vitro Whole Cell Assay for TNF-α Inhibition
Freshly obtained venous blood was anticoagulated with heparin, diluted with an equal volume of phosphate buffered saline (“PBS”) and placed in a sterile tube or other container. Aliquots (30 mL) of this mixture were transferred to centrifuge tubes which were underlaid with Ficoll-Hypaque (15 mL). The prepared tubes were centrifuged at 400×g, without braking, for 30 min at room temperature. Approximately ½ to ⅔ of the platelet layer above the mononuclear cell band was removed with a pipette. The majority of the mononuclear cell layer was carefully removed using a pipette and these PBMC's were diluted with PBS and spun at 600×g for 15 min. The resulting PBMC's were washed with another portion of PBS and spun at 400×g for 10 min at room temperature. The recovered pellets were diluted in low endotoxin RPMI/1% FCS culture medium, and gave a cell concentration of 0.5-2.0×10^6 PMBC/mL. A small volume of the suspension was removed for counting on a hemocytometer and the remaining preparation was centrifuged at 200×g for 15 min at room temperature. The recovered pelleted PMBC's were resuspended in RPMI/1% FCS to a concentration of 1.67×10^6/mL.
To run the assay, the PBMC suspension (180 μL) was transferred to duplicate wells of a 96-well flat-bottom microtiter plate and incubated for 1 h at 37° C. A solution of test compound (10 μL: prepared at 20× the desired final concentration) was added to each well and the plate was incubated for 1 h at 37° C. A solution (10 μL) of LPS in RPMI/1% FCS (200 ng/mL) was added and the wells were incubated overnight at 37° C. The supernate (100 μL) was removed from each well and diluted with RPMI/1% FCS (400 μL). The samples were analyzed for TNF-α using a commercial ELISA kit (Genzyme).
The compounds were tested for their ability to inhibit TNF-α production. The IC50 nM results are listed for the indicated compounds.

The test system of experiment [2] is LPS-induced TNF-α production. Description: In Vivo Rodent Assay for Inhibition of TNF-α Production (mice). The arrangement: species or system Mice (BALB/cJ females). As to conditions: oral dosing, LPS 1 mg/kg i.p., serum TNF-α. Here is the method:
C. In Vivo Rodent Assay for Inhibition of TNF-α Production
Mice (BALB/cJ females, Jackson Laboratories) or rats (Lewis males, Charles River) were fasted for 30 min prior to oral dosing with 5-10 mL/kg of test compound at 5-50 mg/kg. Thirty minutes after dosing, the animals were injected intraperitoneally with LPS at 1 mg/kg and returned to their cages for 1 h. Animals were anesthetized by CO2, exsanguinated by cardiac puncture and whole blood collected (0.1-0.7 mL). The blood was allowed to clot and serum was transferred to a centrifuge tube. This sample was centrifuged, and serum was collected, aliquoted and frozen at −80° C. Samples were tested by commercial ELISA's for TNF-α (Endogen for mouse TNF-α and Biosource for rat TNF-α).

The IC50 is the concentration at which inhibition is half-maximal. A word on the inhibition in vivo: it is the percentage by which the read-out fell short of the control. Read a high inhibition in vivo as a strong effect.

T1 sequence (Q16539 whole entry): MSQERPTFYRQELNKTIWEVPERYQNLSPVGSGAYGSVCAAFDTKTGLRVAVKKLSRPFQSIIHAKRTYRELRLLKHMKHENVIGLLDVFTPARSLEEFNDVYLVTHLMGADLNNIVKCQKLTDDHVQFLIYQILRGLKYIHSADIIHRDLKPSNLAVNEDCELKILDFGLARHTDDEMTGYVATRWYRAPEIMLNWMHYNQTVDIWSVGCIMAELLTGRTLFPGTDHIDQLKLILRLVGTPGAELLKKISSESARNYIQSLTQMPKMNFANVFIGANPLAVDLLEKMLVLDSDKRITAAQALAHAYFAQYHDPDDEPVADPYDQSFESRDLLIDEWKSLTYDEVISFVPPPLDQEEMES

On to `O=[N+]([O-])c1ccc(-n2cc(-c3ccc(F)cc3)c(-c3ccncc3)c2CCCc2ccccc2)cc1` [compound 31, 4-(4-Fluorophenyl)-1-(4-nitrophenyl)-2-(3-phenylpropyl)-3-(4-pyridyl)pyrrole], for which the inhibition at 10 µM in experiment [1] was determined as 67%. Besides, it took 15 nM to reach half-maximal inhibition in the experiment on TNF-α production (IC50). In experiment [2] (Mus musculus, 1 h, 10 mg/kg), this compound showed an inhibition in vivo at 10 mg/kg of 47%.

For the compound `Nc1ccc(-n2cc(-c3ccc(F)cc3)c(-c3ccncc3)c2CCCc2ccccc2)cc1` [compound 33, 1-(4-Aminophenyl)-4-(4-fluorophenyl)-2-(3-phenylpropyl)-3-(4-pyridyl)pyrrole], the inhibition at 10 µM in experiment [1] came out at 51%. This compound showed an IC50 in the experiment on TNF-α production of 8 nM.

With `Fc1ccc(-c2c[nH]c(CCCc3ccccc3)c2-c2ccncc2)cc1` [compound 28, 4-(4-Fluorophenyl)-2-(3-phenylpropyl)-3-(4-pyridyl)pyrrole], the inhibition at 10 µM in experiment [1] came out at 49%. The IC50 with TNF-α production came to 3.5 nM. Also, the inhibition in vivo at 10 mg/kg in experiment [2] (Mus musculus, 1 h, 10 mg/kg) amounted to 10%. Also, the inhibition in vivo at 25 mg/kg in experiment [2] (Mus musculus, 1 h, 25 mg/kg) came to 10%.

For `COc1cccc(-c2cn(-c3ccc(C#N)cc3)cc2-c2ccncc2)c1` [compound 18], the “% p38 inhib @ 10 μM” value in experiment [1] was 23%. The compound also gave an IC50 in the experiment on TNF-α production of 15 nM. For the same compound, the results for the “TNF-α % Inhibition Mouse” value in experiment [2] (10 mg/kg) and in experiment [2] (25 mg/kg) were 24% and 60%, respectively.

With `COc1cccc(-c2cn(C)cc2-c2ccncc2)c1` [compound 14], the “% p38 inhib @ 10 μM” value in experiment [1] came out at 43%. This compound also displayed a concentration for half-maximal inhibition (IC50) with TNF-α production of 55 nM. The figures for the “TNF-α % Inhibition Mouse” value in experiment [2] (10 mg/kg) and in experiment [2] (25 mg/kg) were 41% and 71%, respectively.

`CC(=O)Nc1ccc(-n2cc(-c3ccc(F)cc3)c(-c3ccncc3)c2CCCc2ccccc2)cc1` [compound 32, 1-(4-Acetoaminophenyl)-4-(4-fluorophenyl)-2-(3-phenylpropyl)-3-(4-pyridyl)pyrrole]: the inhibition at 10 µM in experiment [1] came to 38%. For the same compound, in the experiment on TNF-α production, the IC50 came out at 5 nM. In addition, in experiment [2] (Mus musculus, 1 h, 10 mg/kg), 10 mg/kg produced 48% inhibition in vivo.

In the case of `O=[N+]([O-])c1ccc(-n2cc(-c3ccncc3)c(-c3ccc(F)cc3)c2)cc1` [compound 30], the “% p38 inhib @ 10 μM” value in experiment [1] is listed as 70%. This compound also came in with a half-maximal inhibitory concentration (IC50) in the experiment on TNF-α production of 2 nM. Further, in experiment [2] (25 mg/kg), the “TNF-α % Inhibition Mouse” value is 53%.

`N#Cc1ccc(-n2cc(-c3ccncc3)c(-c3ccc(F)c(F)c3)c2)cc1` [compound 4]: the inhibition at 10 µM in experiment [1] was found to be 21%. For the same compound, the 50% inhibitory concentration (IC50) with TNF-α production turned out to be 2 nM.

As to `Cn1cc(-c2ccncc2)c(-c2ccc(F)c(F)c2)c1` [compound 2], the “% p38 inhib @ 10 μM” value in experiment [1] is listed as 15%. In the experiment on TNF-α production, the half-maximal inhibitory concentration (IC50) stood at 30 nM.

Regarding `O=[N+]([O-])c1ccc(-n2cc(-c3ccncc3)c(-c3ccc(F)c(F)c3)c2)cc1` [compound 3], in experiment [1], the “% p38 inhib @ 10 μM” value was 80%. For the same compound, the IC50 with TNF-α production was 2 nM. In addition, the “TNF-α % Inhibition Mouse” value in experiment [2] (10 mg/kg) was 81%.

`Cn1cc(-c2ccncc2)c(-c2ccc(F)cc2)c1` [compound 29, 1-Methyl-3-(4-fluorophenyl)-4-(4-pyridyl)pyrrole]: the inhibition at 10 µM in experiment [1] was found to be 34%. The compound further came in with an IC50 with TNF-α production of 200 nM.
